Columns and labels:
[1] = molecular target: Cbl-b (36-427 aa truncated form, N-terminus Avi-tag) (Homo sapiens (Human), UniProt Q13191); assay: Cbl-b binding: TR-FRET displacement of BODIPY-FL probe
Outline: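 IC50 from loss of terbium–BODIPY-FL TR-FRET signal as compounds compete off a fluorescent Cbl-b inhibitor probe (1 uM) for 1 h at RT. Protein: N-Avi-tagged human Cbl-b 36-427 on streptavidin-terbium, 20 mM HEPES pH 7.5 buffer.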

Human primary T cells [2] = assay: T cell activation: secreted IL-2; assay type: cell-based; settings: 48 hours, fold over background normalized to Compound 141A; for IL-2 1 nM: 1 nM compound; for IL-2 10 nM: 10 nM compound; for IL-2 100 nM: 100 nM compound
Outline: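 IL-2 values are fold over anti-CD3/CD28 background, normalized to a reference compound and sorted into ranges. They come from supernatants of human pan-T cells captured on anti-CD3-coated plates and exposed 48 h, 37° C., to duplicate compound dilutions, measured with cytometric beads.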

Human primary T cells [3] = assay: T cell activation: secreted IFN-y; assay type: cell-based; settings: 48 hours, fold over background normalized to Compound 141A; for IFN-y 1 nM: 1 nM compound; for IFN-y 10 nM: 10 nM compound; for IFN-y 100 nM: 100 nM compound
Outline: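 Values are binned ranges (A–D) of fold increase over anti-CD3/CD28 background, normalized to a reference compound, for IFN-γ in supernatants measured by bead array. Pan-T cells from donor PBMC or LeukoPaks were stimulated on anti-CD3-coated wells (10 μg/mL coating) in serum-free medium with compound for 48 h at 37 °C.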

Human primary T cells [4] = assay: T cell activation: CD69 surface expression by flow cytometry; assay type: cell-based; settings: fold over anti-CD3 stimulated background normalized to Compound 141A; for CD69 1 nM: 1 nM compound; for CD69 10 nM: 10 nM compound; for CD69 100 nM: 100 nM compound
Outline: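 Read-out is flow-cytometric CD69 surface staining, expressed as fold increase over anti-CD3-stimulated background and normalized to Compound 141A. Human pan T cells from PBMC or LeukoPaks were plated on OKT3-coated wells in serum-free XVivo-15. Compound dilutions were added for 48 h at 37° C, 5% CO2.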

Cbl-b (36-427 aa truncated form, N-terminus Avi-tag), sequence (Q13191 36-427): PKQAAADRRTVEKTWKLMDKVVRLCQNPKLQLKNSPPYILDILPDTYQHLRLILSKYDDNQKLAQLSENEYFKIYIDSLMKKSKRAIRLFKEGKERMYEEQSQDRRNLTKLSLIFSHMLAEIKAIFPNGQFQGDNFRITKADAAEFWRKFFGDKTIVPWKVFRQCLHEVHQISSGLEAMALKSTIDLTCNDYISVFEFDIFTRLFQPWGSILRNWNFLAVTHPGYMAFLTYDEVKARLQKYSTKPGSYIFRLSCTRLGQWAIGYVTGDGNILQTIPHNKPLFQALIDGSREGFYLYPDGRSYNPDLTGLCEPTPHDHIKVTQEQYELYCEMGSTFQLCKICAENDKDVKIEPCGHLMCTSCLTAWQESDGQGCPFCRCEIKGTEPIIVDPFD

CC1CC(c2cccc(N3Cc4c(cc(C(CO)N5CCC[C@H](C)C5)cc4C(F)(F)F)C3=O)c2)(c2nncn2C)C1 (stereo partly drawn) [Compound 152, 6-{2-hydroxy-1-[(3S)-3-methylpiperidin-1-yl]ethyl}-2-{3-[(1r,3s)-3-methyl-1-(4-methyl-1,2,4-triazol-3-yl)cyclobutyl]phenyl}-4-(trifluoromethyl)-3H-isoindol-1-one]
IC50 [1]: 1 to 5 nM
IL-2 1 nM (Human primary T cells [2]): C (values between 0.10 and 0.30: range “C”)
IL-2 10 nM (Human primary T cells [2]): C (values between 0.10 and 0.30: range “C”)
IL-2 100 nM (Human primary T cells [2]): C (values between 0.10 and 0.30: range “C”)
IFN-y 1 nM (Human primary T cells [3]): C (values between 0.10 and 0.30: range “C”)
IFN-y 10 nM (Human primary T cells [3]): B (values between 0.31 and 1.00: range “B;”)
IFN-y 100 nM (Human primary T cells [3]): B (values between 0.31 and 1.00: range “B;”)
CD69 1 nM (Human primary T cells [4]): C (values between 0.30 and 0.60: range “C”)
CD69 10 nM (Human primary T cells [4]): C (values between 0.30 and 0.60: range “C”)
CD69 100 nM (Human primary T cells [4]): A (values between 0.81 and 1.10: range “A”)

CSc1cc(CN2CCC[C@H](C)C2)cc2c1CN(c1cc(C3(Cc4nncn4C)COC3)cc(NCCC#N)n1)C2=O.O=C(O)C(F)(F)F [Compound 154, 3-[(4-{3-[(4-methyl-1,2,4-triazol-3-yl)methyl]oxetan-3-yl}-6-(6-{[(3S)-3-methylpiperidin-1-yl]methyl}-4-(methylsulfanyl)-1-oxo-3H-isoindol-2-yl)pyridin-2-yl)amino]propanenitrile; trifluoroacetic acid]
IC50 [1]: 1 to 5 nM
IL-2 1 nM (Human primary T cells [2]): D (values between 0.01 and 0.09: range “D.”)
IL-2 10 nM (Human primary T cells [2]): D (values between 0.01 and 0.09: range “D.”)
IL-2 100 nM (Human primary T cells [2]): C (values between 0.10 and 0.30: range “C”)
IFN-y 1 nM (Human primary T cells [3]): B (values between 0.31 and 1.00: range “B;”)
IFN-y 10 nM (Human primary T cells [3]): B (values between 0.31 and 1.00: range “B;”)
IFN-y 100 nM (Human primary T cells [3]): B (values between 0.31 and 1.00: range “B;”)
CD69 1 nM (Human primary T cells [4]): C (values between 0.30 and 0.60: range “C”)
CD69 10 nM (Human primary T cells [4]): C (values between 0.30 and 0.60: range “C”)
CD69 100 nM (Human primary T cells [4]): B (values between 0.61 and 0.80: range “B;”)

Cn1cnnc1CC1(c2cc(NCCC#N)nc(N3Cc4c(cc(CN5CCCC6OCCC65)cc4C(F)(F)F)C3=O)c2)COC1 (stereo not drawn) [Compound 162, 3-{[6-(6-{hexahydro-2H-furo[3,2-b]pyridin-4-ylmethyl}-1-oxo-4-(trifluoromethyl)-3H-isoindol-2-yl)-4-{3-[(4-methyl-1,2,4-triazol-3-yl)methyl]oxetan-3-yl}pyridin-2-yl]amino}propanenitrile]
IC50 [1]: 5.01 to 20 nM
IL-2 1 nM (Human primary T cells [2]): D (values between 0.01 and 0.09: range “D.”)
IL-2 10 nM (Human primary T cells [2]): D (values between 0.01 and 0.09: range “D.”)
IL-2 100 nM (Human primary T cells [2]): D (values between 0.01 and 0.09: range “D.”)
IFN-y 1 nM (Human primary T cells [3]): C (values between 0.10 and 0.30: range “C”)
IFN-y 10 nM (Human primary T cells [3]): B (values between 0.31 and 1.00: range “B;”)
IFN-y 100 nM (Human primary T cells [3]): B (values between 0.31 and 1.00: range “B;”)
CD69 1 nM (Human primary T cells [4]): C (values between 0.30 and 0.60: range “C”)
CD69 10 nM (Human primary T cells [4]): C (values between 0.30 and 0.60: range “C”)
CD69 100 nM (Human primary T cells [4]): C (values between 0.30 and 0.60: range “C”)

Cn1cnnc1CC1(c2cc(NCCC#N)nc(N3Cc4c(cc(CN5CC6(F)CC(CO)(C5)C6)cc4C(F)(F)F)C3=O)c2)COC1.O=C(O)C(F)(F)F [Compound 164, 3-{[6-(6-{[1-fluoro-5-(hydroxymethyl)-3-azabicyclo[3.1.1]heptan-3-yl]methyl}-1-oxo-4-(trifluoromethyl)-3H-isoindol-2-yl)-4-{3-[(4-methyl-1,2,4-triazol-3-yl)methyl]oxetan-3-yl}pyridin-2-yl]amino}propanenitrile; trifluoroacetic acid]
IC50 [1]: 5.01 to 20 nM
IL-2 1 nM (Human primary T cells [2]): C (values between 0.10 and 0.30: range “C”)
IL-2 10 nM (Human primary T cells [2]): C (values between 0.10 and 0.30: range “C”)
IL-2 100 nM (Human primary T cells [2]): C (values between 0.10 and 0.30: range “C”)
IFN-y 1 nM (Human primary T cells [3]): C (values between 0.10 and 0.30: range “C”)
IFN-y 10 nM (Human primary T cells [3]): C (values between 0.10 and 0.30: range “C”)
IFN-y 100 nM (Human primary T cells [3]): B (values between 0.31 and 1.00: range “B;”)
CD69 1 nM (Human primary T cells [4]): C (values between 0.30 and 0.60: range “C”)
CD69 10 nM (Human primary T cells [4]): C (values between 0.30 and 0.60: range “C”)
CD69 100 nM (Human primary T cells [4]): C (values between 0.30 and 0.60: range “C”)

CCSc1cc(C2(Cc3nncn3C)COC2)cc(N2Cc3c(C=O)cc(CN4CCC[C@H](C)C4)cc3C2=O)n1 [Compound 169, 2-[6-(ethylsulfanyl)-4-{3-[(4-methyl-1,2,4-triazol-3-yl)methyl]oxetan-3-yl}pyridin-2-yl]-6-{[(3S)-3-methylpiperidin-1-yl]methyl}-1-oxo-3H-isoindole-4-carbaldehyde]
IC50 [1]: 5.01 to 20 nM
IL-2 1 nM (Human primary T cells [2]): C (values between 0.10 and 0.30: range “C”)
IL-2 10 nM (Human primary T cells [2]): C (values between 0.10 and 0.30: range “C”)
IL-2 100 nM (Human primary T cells [2]): C (values between 0.10 and 0.30: range “C”)
IFN-y 1 nM (Human primary T cells [3]): C (values between 0.10 and 0.30: range “C”)
IFN-y 10 nM (Human primary T cells [3]): B (values between 0.31 and 1.00: range “B;”)
IFN-y 100 nM (Human primary T cells [3]): B (values between 0.31 and 1.00: range “B;”)
CD69 1 nM (Human primary T cells [4]): C (values between 0.30 and 0.60: range “C”)
CD69 10 nM (Human primary T cells [4]): C (values between 0.30 and 0.60: range “C”)
CD69 100 nM (Human primary T cells [4]): C (values between 0.30 and 0.60: range “C”)

CSc1cc(C(CO)N2CCC[C@H](C)C2)cc2c1CN(c1cccc([C@]3(c4nncn4C)C[C@H](C)C3)c1)C2=O (stereo partly drawn) [Compound 170, 6-{2-hydroxy-1-[(3S)-3-methylpiperidin-1-yl]ethyl}-4-(methylsulfanyl)-2-{3-[(1r,3s)-3-methyl-1-(4-methyl-1,2,4-triazol-3-yl)cyclobutyl]phenyl}-3H-isoindol-1-one]
IC50 [1]: 1 to 5 nM
IL-2 1 nM (Human primary T cells [2]): C (values between 0.10 and 0.30: range “C”)
IL-2 10 nM (Human primary T cells [2]): C (values between 0.10 and 0.30: range “C”)
IL-2 100 nM (Human primary T cells [2]): B (values between 0.31 and 0.79: range “B”)
IFN-y 1 nM (Human primary T cells [3]): B (values between 0.31 and 1.00: range “B;”)
IFN-y 10 nM (Human primary T cells [3]): B (values between 0.31 and 1.00: range “B;”)
IFN-y 100 nM (Human primary T cells [3]): B (values between 0.31 and 1.00: range “B;”)
CD69 1 nM (Human primary T cells [4]): C (values between 0.30 and 0.60: range “C”)
CD69 10 nM (Human primary T cells [4]): C (values between 0.30 and 0.60: range “C”)
CD69 100 nM (Human primary T cells [4]): A (values between 0.81 and 1.10: range “A”)

CCNc1cc(C2(c3nncn3C)CC(C)C2)cc(N2Cc3c(cc(CN4CCC[C@H](C)C4)cc3C(F)(F)F)C2=O)n1 (stereo partly drawn) [Compound 171, 2-[6-(ethylamino)-4-[(1r,3s)-3-methyl-1-(4-methyl-1,2,4-triazol-3-yl)cyclobutyl]pyridin-2-yl]-6-{[(3 S)-3-methylpiperidin-1-yl]methyl}-4-(trifluoromethyl)-3H-isoindol-1-one]
IC50 [1]: 100 to 1000 nM
IL-2 1 nM (Human primary T cells [2]): C (values between 0.10 and 0.30: range “C”)
IL-2 10 nM (Human primary T cells [2]): C (values between 0.10 and 0.30: range “C”)
IL-2 100 nM (Human primary T cells [2]): B (values between 0.31 and 0.79: range “B”)
IFN-y 1 nM (Human primary T cells [3]): B (values between 0.31 and 1.00: range “B;”)
IFN-y 10 nM (Human primary T cells [3]): B (values between 0.31 and 1.00: range “B;”)
IFN-y 100 nM (Human primary T cells [3]): A (fold over background between 1.10 and 2.00: range “A”)
CD69 1 nM (Human primary T cells [4]): C (values between 0.30 and 0.60: range “C”)
CD69 10 nM (Human primary T cells [4]): C (values between 0.30 and 0.60: range “C”)
CD69 100 nM (Human primary T cells [4]): X (fold over background values between 1.11 and 1.6: range “X”)

CSc1cc(CN2CCC[C@H](C)C2)cc2c1CN(c1cc(C3(Cc4nncn4C)COC3)cc(N)n1)C2=O [Compound 173]
IC50 [1]: 1 to 5 nM
IL-2 1 nM (Human primary T cells [2]): D (values between 0.01 and 0.09: range “D.”)
IL-2 10 nM (Human primary T cells [2]): D (values between 0.01 and 0.09: range “D.”)
IL-2 100 nM (Human primary T cells [2]): D (values between 0.01 and 0.09: range “D.”)
IFN-y 1 nM (Human primary T cells [3]): C (values between 0.10 and 0.30: range “C”)
IFN-y 10 nM (Human primary T cells [3]): B (values between 0.31 and 1.00: range “B;”)
IFN-y 100 nM (Human primary T cells [3]): B (values between 0.31 and 1.00: range “B;”)
CD69 1 nM (Human primary T cells [4]): C (values between 0.30 and 0.60: range “C”)
CD69 10 nM (Human primary T cells [4]): C (values between 0.30 and 0.60: range “C”)
CD69 100 nM (Human primary T cells [4]): C (values between 0.30 and 0.60: range “C”)

CSc1cc(CN2CCC[C@H](C)C2)cc2c1CN(c1cc([C@]3(c4nncn4C)C[C@H](C)C3)cc(N)n1)C2=O [Compound 174, 2-{6-amino-4-[(1r,3s)-3-methyl-1-(4-methyl-1,2,4-triazol-3-yl)cyclobutyl]pyridin-2-yl}-6-{[(3S)-3-methylpiperidin-1-yl]methyl}-4-(methylsulfanyl)-3H-isoindol-1-one]
IC50 [1]: 5.01 to 20 nM
IL-2 1 nM (Human primary T cells [2]): D (values between 0.01 and 0.09: range “D.”)
IL-2 10 nM (Human primary T cells [2]): D (values between 0.01 and 0.09: range “D.”)
IL-2 100 nM (Human primary T cells [2]): B (values between 0.31 and 0.79: range “B”)
IFN-y 1 nM (Human primary T cells [3]): B (values between 0.31 and 1.00: range “B;”)
IFN-y 10 nM (Human primary T cells [3]): B (values between 0.31 and 1.00: range “B;”)
IFN-y 100 nM (Human primary T cells [3]): B (values between 0.31 and 1.00: range “B;”)
CD69 1 nM (Human primary T cells [4]): C (values between 0.30 and 0.60: range “C”)
CD69 10 nM (Human primary T cells [4]): C (values between 0.30 and 0.60: range “C”)
CD69 100 nM (Human primary T cells [4]): B (values between 0.61 and 0.80: range “B;”)

Source: patent publication US20250304563A1, “ACTIVATORS OF EFFECTOR T CELLS” (Orum Therapeutics, Inc., priority 2022, published 2025)
